Measurements: patent US7666913B2, “Method of treating or preventing osteoporosis using isotaxiresinol derived from Taxus yunnanensis” (Kotosugi Inc., priority 2004, dated 2010)

Columns and labels:
Format in all cases: in vivo, rat
[1] = test system: ovariectomized female Wistar rats, tibiae and femora; experiment: Antiosteoporotic activity in ovariectomized rats: weight and length of tibiae and femora; details: for Femur Length / Femur Weight / Tibia Length / Tibia Weight: OVX rats, mean ± SD
Procedure: Each of the animal groups for experiments included comprised 10 rats. Ovaries were removed from female Wistar rats (age: 8 months, weight: 260-330 g). ITX, suspended in 1% water solution of carboxymethl cellulose sodium salt, was orally administered to rats of one group in a dose of 50 mg/kg (weight of rat) and to rats of another group in a dose of 100 mg/kg (weight of rat) 6 times per week after 2 weeks of the removal. […] An OVX (ovariectomized) group was prepared as negative control. Furthermore, another group was sham-operated as a Sham group. The OVX group and the Sham group were only fed, with no compound or drug given. Furthermore, a tibia, a femur, and a uterus were removed from every rat and then weighted. […] In the table, ITX 100 is a group of the rats which ITX was given to in a dose of 100 mg/kg, and ITX 50 is a group of the rats which ITX was given to in a dose of 50 mg/kg. E2 is a group of the rats which E2 was given to. The figures in each column of the table show averages and standard deviations of the measured values. The presentation of the figures applies to Table 3 and Table 4 as well.

[2] = test system: ovariectomized female Wistar rats, proximal tibia bone; experiment: Antiosteoporotic activity in ovariectomized rats: pQCT of proximal tibia (BMC, BMD, cortical geometry, bone strength indices); details: for Cancellous bone BMC / Cancellous bone BMD / Cortical bone BMC / Cortical bone BMD / Cortical bone thickness / Edno. C. (endosteal circumference) / Peri. C. (periosteal circumference) / Total bone BMC / Total bone BMD / Cortical bone thickness as % of that of the Sham group / Bone strength index PSSI / Bone strength index XSSI / Bone strength index YSSI: OVX rats; for Cancellous bone BMC / Cancellous bone BMD / Cortical bone BMC / Cortical bone BMD / Cortical bone thickness / Edno. C. (endosteal circumference) / Peri. C. (periosteal circumference) / Total bone BMC / Total bone BMD / Bone strength index PSSI / Bone strength index XSSI / Bone strength index YSSI: 6 weeks, 1 mm under growth plate
Procedure: Antiosteoporotic Activity of ITX was Assessed by Using Rats. Each of the animal groups for experiments included comprised 10 rats. Ovaries were removed from female Wistar rats (age: 8 months, weight: 260-330 g). ITX, suspended in 1% water solution of carboxymethl cellulose sodium salt, was orally administered to rats of one group in a dose of 50 mg/kg (weight of rat) and to rats of another group in a dose of 100 mg/kg (weight of rat) 6 times per week after 2 weeks of the removal. […] An OVX (ovariectomized) group was prepared as negative control. Furthermore, another group was sham-operated as a Sham group. The OVX group and the Sham group were only fed, with no compound or drug given. Tibial characteristics of the rats, which were anesthetized in advance, were measured by means of peripheral quantitative computed tomography (pQCT) 6 weeks after the initiation of the administration (i.e., 8 weeks after the removal of the ovaries). In the measurement, the left tibiae were scanned with a pQCT system XCT Research M (manufactured by Stratec Medizintechnik GmbH, Germany). Voxel size was set to 0.08 mm, slice thickness was set to 0.5 mm, and cortical BMD threshold was set to 464 mg/cm^3. Furthermore, peel mode was set to 20 to divide total bone into cortical bone or cancerous bone. A growth plate was identified after preliminary scanning (scout scan), and then a reference position was identified. Next, transverse image sets of four cross-sectional slices were scanned at a region of 1 to 5 mm under the growth plate. Cortical BMC and BMD and cancellous BMC and BMD, thickness of cortical bone, and periosteal circumference and endosteal circumference of cortical bone were measured at a separation mode of 3 and a contour mode of 2. Three indices of bone strength (X-, Y-, and Polar-axes) were also measured, and the data obtained were processed by XCT Research Series Manual Software Version 5.4, in which case the standard cortical BMD was set to 1,200 mg/cm^3. […] The figures in the total bone columns show the values of the whole bone obtained by measuring cancellous bone and cortical bone together. […] The presentation of t-test results applies to Table 4 as well. In the experiment, three bone strength indexes were measured: PSSI (polar-axis strength index), XSSI (X-axis strength index), and YSSI (Y-axis strength index).

[3] = test system: ovariectomized female Wistar rats; experiment: Antiosteoporotic activity in ovariectomized rats: body weight and uterine weight
Procedure: Each of the animal groups for experiments included comprised 10 rats. Ovaries were removed from female Wistar rats (age: 8 months, weight: 260-330 g). ITX, suspended in 1% water solution of carboxymethl cellulose sodium salt, was orally administered to rats of one group in a dose of 50 mg/kg (weight of rat) and to rats of another group in a dose of 100 mg/kg (weight of rat) 6 times per week after 2 weeks of the removal.
An OVX (ovariectomized) group was prepared as negative control. Furthermore, another group was sham-operated as a Sham group. The OVX group and the Sham group were only fed, with no compound or drug given.
Furthermore, a tibia, a femur, and a uterus were removed from every rat and then weighted.

[4] = E2 0.1 mg/kg into abdominal cavity
[5] = ITX 50 mg/kg oral, 6 times per week
[6] = ITX 100 mg/kg oral, 6 times per week

C[C@]12CC[C@@H]3c4ccc(O)cc4CC[C@H]3[C@@H]1CC[C@@H]2O [E2, 17β-estradiol, reference compound]
Femur Length [1, 4]: 3.59 ± 0.15 cm
Femur Weight [1, 4]: 861 ± 65 mg
Tibia Length [1, 4]: 3.76 ± 0.14 cm
Tibia Weight [1, 4]: 547 ± 94 mg
BMC and BMD (total, cancellous, cortical) compared to the OVX group (in words) ([2]; E2 0.1 mg/kg): inhibition of decrease in all but except total BMD and cancellous BMC
Endosteal circumference compared to the OVX group (in words) ([2]; E2 0.1 mg/kg): inhibition of increase
Increase in XSSI compared to the OVX group ([2]; E2 0.1 mg/kg): 15.3%
Increase in YSSI compared to the OVX group ([2]; E2 0.1 mg/kg): 23.5%
Increase in cortical bone thickness compared to the OVX group ([2]; E2 0.1 mg/kg): 9.8%
Periosteal circumference compared to the OVX group (in words) ([2]; E2 0.1 mg/kg): a decrease
Cancellous bone BMC [2, 4]: 0.96 ± 0.17 mg/mm
Cancellous bone BMD [2, 4]: 244 ± 53 mg/mL
Cortical bone BMC [2, 4]: 7.58 ± 0.48 mg/mm
Cortical bone BMD [2, 4]: 1143 ± 22 mg/mL
Cortical bone thickness [2, 4]: 0.56 ± 0.03 mm
Edno. C. (endosteal circumference) [2, 4]: 9.79 ± 0.57 mm
Peri. C. (periosteal circumference) [2, 4]: 13.4 ± 0.6 mm
Total bone BMC [2, 4]: 10.5 ± 0.7 mg/mm
Total bone BMD [2, 4]: 723 ± 38 mg/mL
Body weight at the end compared to the OVX group (in words) ([3]; E2 0.1 mg/kg): inhibition of increase
Body weight at the end ([3]; OVX rats, E2 0.1 mg/kg into abdominal cavity, end of the experiment): 299 ± 33 g
Decrease in uterine weight compared to the Sham group ([3]; OVX rats, E2 0.1 mg/kg, end of the experiment): 48.5%

COc1cc2c(cc1O)[C@H](c1ccc(O)c(O)c1)[C@@H](CO)[C@H](CO)C2 [ITX, isotaxiresinol]
Tibia weight compared with the OVX group (in words) ([1]; ITX 50 mg/kg oral): no significant difference
Femur weight compared with the OVX group (in words) ([1]; ITX 100 mg/kg oral): no significant difference
Femur Length [1, 5]: 3.64 ± 0.05 cm
Femur Weight [1, 5]: 862 ± 64 mg
Tibia Length [1, 5]: 3.98 ± 0.14 cm
Tibia Weight [1, 5]: 588 ± 52 mg
Femur Length [1, 6]: 3.59 ± 0.22 cm
Femur Weight [1, 6]: 897 ± 83 mg
Tibia Length [1, 6]: 3.97 ± 0.24 cm
Tibia Weight [1, 6]: 562 ± 95 mg
Cortical BMC compared to the OVX group (in words) ([2]; ITX 50 mg/kg oral): inhibition of decrease
Cortical BMD compared to the OVX group (in words) ([2]; ITX 50 mg/kg oral): inhibition of decrease
Endosteal circumference compared to the OVX group (in words) ([2]; ITX 50 mg/kg oral): inhibition of increase
Increase in PSSI compared to the OVX group ([2]; ITX 50 mg/kg oral): 16.2%
Increase in XSSI compared to the OVX group ([2]; ITX 50 mg/kg oral): 14.2%
Increase in YSSI compared to the OVX group ([2]; ITX 50 mg/kg oral): 24.0%
Periosteal circumference compared to the OVX group (in words) ([2]; ITX 50 mg/kg oral): the same level or an increase
Total BMD compared to the OVX group (in words) ([2]; ITX 50 mg/kg oral): inhibition of decrease
Cancellous BMC compared to the OVX group (in words) ([2]; ITX 100 mg/kg oral): inhibition of decrease
Cortical BMD compared to the OVX group (in words) ([2]; ITX 100 mg/kg oral): inhibition of decrease
Endosteal circumference compared to the OVX group (in words) ([2]; ITX 100 mg/kg oral): inhibition of increase
Periosteal circumference compared to the OVX group (in words) ([2]; ITX 100 mg/kg oral): the same level or an increase
Cortical bone thickness as % of that of the Sham group ([2]; ITX 50 mg/kg oral): 98.3%
Bone strength index PSSI ([2]; ITX 50 mg/kg oral): 10.35 ± 0.89
Bone strength index XSSI ([2]; ITX 50 mg/kg oral): 5.15 ± 0.62
Bone strength index YSSI ([2]; ITX 50 mg/kg oral): 6.45 ± 0.67
Cancellous bone BMC ([2]; ITX 50 mg/kg oral): 0.99 ± 0.12 mg/mm
Cancellous bone BMD ([2]; ITX 50 mg/kg oral): 215 ± 25 mg/mL
Cortical bone BMC ([2]; ITX 50 mg/kg oral): 7.72 ± 0.52 mg/mm
Cortical bone BMD ([2]; ITX 50 mg/kg oral): 1137 ± 14 mg/mL
Cortical bone thickness ([2]; ITX 50 mg/kg oral): 0.58 ± 0.03 mm
Edno. C. (endosteal circumference) ([2]; ITX 50 mg/kg oral): 9.92 ± 0.54 mm
Peri. C. (periosteal circumference) ([2]; ITX 50 mg/kg oral): 13.7 ± 0.5 mm
Total bone BMC ([2]; ITX 50 mg/kg oral): 10.4 ± 0.8 mg/mm
Total bone BMD ([2]; ITX 50 mg/kg oral): 707 ± 14 mg/mL
Cortical bone thickness as % of that of the Sham group ([2]; ITX 100 mg/kg oral): 93.2%
Bone strength index PSSI ([2]; ITX 100 mg/kg oral): 9.34 ± 0.70
Bone strength index XSSI ([2]; ITX 100 mg/kg oral): 4.77 ± 0.68
Bone strength index YSSI ([2]; ITX 100 mg/kg oral): 5.71 ± 0.41
Cancellous bone BMC ([2]; ITX 100 mg/kg oral): 1.04 ± 0.15 mg/mm
Cancellous bone BMD ([2]; ITX 100 mg/kg oral): 207 ± 28 mg/mL
Cortical bone BMC ([2]; ITX 100 mg/kg oral): 7.40 ± 0.29 mg/mm
Cortical bone BMD ([2]; ITX 100 mg/kg oral): 1138 ± 17 mg/mL
Cortical bone thickness ([2]; ITX 100 mg/kg oral): 0.55 ± 0.03 mm
Edno. C. (endosteal circumference) ([2]; ITX 100 mg/kg oral): 9.97 ± 0.37 mm
Peri. C. (periosteal circumference) ([2]; ITX 100 mg/kg oral): 13.6 ± 0.4 mm
Total bone BMC ([2]; ITX 100 mg/kg oral): 9.82 ± 0.37 mg/mm
Total bone BMD ([2]; ITX 100 mg/kg oral): 683 ± 21 mg/mL
Body weight at the end compared to the OVX group (in words) ([3]; ITX 50 mg/kg oral): inhibition of increase
Body weight at the end compared to the OVX group (in words) ([3]; ITX 100 mg/kg oral): inhibition of increase
Body weight at the end ([3]; OVX rats, ITX 50 mg/kg oral, end of the experiment): 318 ± 18 g
Body weight at the end ([3]; OVX rats, ITX 100 mg/kg oral, end of the experiment): 301 ± 15 g
